# Results taken from patent publication US4207326A, “Antimicrobial quaternary pyrazole derivatives” (Cilag-Chemie A.G., priority 1979, dated 1980).
# Read-outs that look alike come from different tables or passages of the source.
# Columns and labels:
# A. corymbifera = assay: Antifungal activity: Minimum Inhibitory Concentration; assay type: cell-based, Absidia corymbifera NCPF 2001; details: A. corymbifera, 27° C., one week; for MIC: Lichtheimia corymbifera, read-out: Minimum Inhibitory Concentration
# Procedure: (§1) The antimicrobial activity was determined by inoculation of the test microorganism into suitable growth media containing solutions of the compounds at concentrations of 100, 50, 10, 5, 1.0, 0.5 and 0.1 μg/ml. The reference antibiotics used were Gentamicin for the antibacterial tests and Amphotericin B for the antimycotic and antifungal tests. After incubation the antimicrobial activity was recorded as the Minimal Inhibitory Concentration (M.I.C.), i.e., the lowest concentration preventing macroscopically visible growth, for each test compound against each organism.
# (§2) An initial solution of each formula (I) compound to be tested in sterile distilled water was prepared at a concentration of 1000 μg/ml. With appropriate dilutions using sterile distilled water, additional solutions were prepared at concentrations of 500, 100, 50, 10, 5 and 1 μg/ml.
# A. corymbifera NCPF 2001
# (§3) The A. corymbifera, A. fumigatus, S. schenkii, T. rubrum, T. mentagrophytes, M. canis and P. verrucosa strains were all maintained on Sabouraud-Dextrose Agar (Oxoid CM 41) by incubating for 14 days at 27° C. To prepare the inocula 30 ml volumes of Sabouraud-Liquid medium (Oxoid CM 147) were inoculated from the agar cultures and incubated at 27° C. until heavy uniform growth resulted. The mycelial growth was then broken up by shaking with glass beads.
# (§4) 1 Ml aliquots were removed from each of the cultures for the purpose of making viable counts and the cultures were then held at 4° C. The viable counts were made by preparing serial ten-fold dilutions of the cultures in sterile physiological saline and spreading on plates of Sabouraud-Dextrose Agar (Oxoid CM 41) which were then incubated at 27° C. for 14 days. When the viable counts had confirmed that each of the inocula contained approximately 10^6 colony forming units (C.F.U.) per ml the cultures were withdrawn from the refrigerator and used as the inocula for the tests.
# (§5) (c) For the tests on each of the remaining seven strains and each of the test and reference compounds, a series of 8 tubes containing 4.5 ml volumes of Sabouraud-Liquid Medium (Oxoid CM 147) were prepared. To 7 of these were added 0.5 ml volumes of the final solutions of the test compounds, giving final concentrations in the broths of 100, 50, 10, 5, 1.0, 0.5 and 0.1 μg/ml. To the eighth tube in each series was added 0.5 ml of the solvent used and diluted as for the preparation of the 500 μg/ml solution of the compound. This tube was used as a growth control. The tubes were then inoculated with 0.1 ml aliquots of the inocula prepared as in "(b) Fungi" above. The tubes were then incubated at 27° C. with continuous shaking for a period of one week. The tubes were then examined for evidence of growth as shown by the presence of mycelial growth in the medium and the lowest concentration of the test compound which prevented fungal growth was recorded as the Minimal Inhibitory Concentration. This test procedure was carried out on two separate days.
# T. mentagrophytes = assay: as above; assay type: cell-based, Trichophyton mentagrophytes NCPF 410; details: T. mentagrophytes, 27° C., one week; for MIC: Trichophyton mentagrophytes, read-out: Minimum Inhibitory Concentration
# Procedure: as §1, §2
# T. mentagrophytes NCPF 410
# as §3, §4, §5
# P. mirabilis = assay: Antibacterial activity: Minimum Inhibitory Concentration; assay type: cell-based, Proteus mirabilis NCTC 8559; details: P. mirabilis, 37° C., 24 hours; for MIC: Proteus mirabilis, read-out: Minimum Inhibitory Concentration
# Procedure: as §1, §2
# They were cultured and maintained on Tryptone Soy Agar (Oxoid CM 131), with the addition of 10% horse blood for the S. pyogenes.
# To prepare the organisms as inocula for the test, slopes of this medium were streaked with the organisms and incubated at 37° C. for 24 hours. 4.5 Ml volumes of Brian-Heart Infusion Broth (Oxoid CM 225) were then inoculated with a platinum loop from the agar slope cultures and incubated for 24 hours at 37° C. The final inocula were then prepared by adding 0.1 ml aliquots of the Brain-Heart Infusion Broth cultures to 100 ml volumes of sterile physiological saline.
# (a) For the test on each of the bacterial strains and each of the test and reference compounds, a series of 8 tubes containing 4.5 ml volumes of Brain-Heart Infusion Broth (Oxoid CM 225) were prepared. To 7 of these were added 0.5 ml volumes of the final solutions of the test compouns, giving final concentrations in the broths of 100, 50, 10, 5, 1.0, 0.5 and 0.1 μg/ml. To the eighth tube in each series was added 0.5 ml of the solvent used and diluted as for the preparation of the 1000 μg/ml solution of the compound. This tube was used as the growth control. The tubes were inoculated with 0.02 ml aliquots of the inocula prepared in accordance with "(a) Bacteria" above, and incubated at 37° C. for 24 hours. The tubes were then examined for evidence of bacterial growth as shown by turbidity of the medium and the lowest concentration of the test compound which prevented bacterial growth was recorded as the Minimal Inhibitory Concentration. This test procedure was carried out on two separate days.
# T. rubrum = assay: Antifungal activity: Minimum Inhibitory Concentration; assay type: cell-based, Trichophyton rubrum NCPF 197; details: T. rubrum, 27° C., one week; for MIC: Trichophyton rubrum, read-out: Minimum Inhibitory Concentration
# Procedure: as §1, §2, §3, §4, §5
# C. neoformans = assay: Antimycotic activity: Minimum Inhibitory Concentration; assay type: cell-based, Cryptococcus neoformans NCPF 3184; details: pH 5.5, 30° C., 72 hours; for MIC: Cryptococcus neoformans, pH 5.5, C. neoformans, read-out: Minimum Inhibitory Concentrations; for Minimum Inhibitory Concentrations: C. neoformans
# Procedure: as §1, §2
# The C. neoformans was also maintained on Sabouraud-Dextrose Agar (Oxoid CM 41), but in this case cultures for the preparation of the inoculum were incubated on this agar at 30° C. for 48 hours. A 4.5 ml volume of citric acid-phosphate buffer pH 5.5 plus Yeast-Nitrogen Base (Difco-0392-15) was then inoculated from the agar culture and incubated at 30° C. for 48 hours. A 0.1 ml aliquot of this culture was then added to 100 ml sterile physiological saline to give the final inoculum.
# (b) For the tests on each of the C. albicans, C. tropicalis and C. neoformans strains and each of the test and reference compounds, a series of 8 tubes containing 4.5 ml volumes of citric acid-phosphate buffer pH 5.5 plus Yeast-Nitrogen Base (Difco 0392-15) were prepared. To 7 of these were added 0.5 ml volumes of the final solutions of the test compounds, giving final concentrations in the broths of 100, 50, 10, 5, 1.0, 0.5 and 0.1 μg/ml. To the eighth tube in each series was added 0.5 ml of the solvent used and diluted as for the preparation of the 1000 μg/ml solution of the compound. This tube was used as the growth control. The tubes were then inoculated with 0.1 ml aliquots of the inocula prepared as in "(b) Fungi" above. The tubes inoculated with the C. albicans and C. tropicalis were inoculated at 37° C. for 72 hours and the tubes inoculated with the C. neoformans straim were incubated at 30° C. for 72 hours. […] The tubes were then examined for evidence of growth as shown by turbidity of the medium and the lowest concentration of the test compound which prevented fungal growth was recorded as the Minimal Inhibitory Concentration. This test procedure was carried out on two separate days.
# A. fumigatus = assay: Antifungal activity: Minimum Inhibitory Concentration; assay type: cell-based, Aspergillus fimigatus (A. fumigatus) NCPF 2140; details: A. fumigatus, 27° C., one week; for MIC: Aspergillus fumigatus, read-out: Minimum Inhibitory Concentration
# Procedure: as §1, §2, §3, §4, §5
Compound,MIC (A. corymbifera; Day 1) [µg/mL],MIC (A. corymbifera; Day 2) [µg/mL],MIC (T. mentagrophytes; Day 1) [µg/mL],MIC (T. mentagrophytes; Day 2) [µg/mL],MIC (P. mirabilis; Day 1) [µg/mL],MIC (P. mirabilis; Day 2) [µg/mL],MIC (T. rubrum; Day 1) [µg/mL],MIC (T. rubrum; Day 2) [µg/mL],MIC (C. neoformans; Day 1) [µg/mL],MIC (C. neoformans; Day 2) [µg/mL],MIC (A. fumigatus; Day 1) [µg/mL],MIC (A. fumigatus; Day 2) [µg/mL],further results
"CCCCCCCCCCCCn1c(C)cc(C)[n+]1C [Example 1, 1-dodecyl-2,3,5-trimethyl-pyrazolium methosulfate]",> 100,> 100,50,50,100,100,10,10,0.5,0.5,100,> 100,
"2,3(5)-dimethyl-1-dodecyl-pyrazolium methosulfate [Example 8-A]",,,,,,,,,,,,,Minimum Inhibitory Concentration (A. corymbifera; Day 1): 100 µg/mL; Minimum Inhibitory Concentration (A. corymbifera; Day 2): 100 µg/mL; Minimum Inhibitory Concentration (T. mentagrophytes; Day 1): 5 µg/mL; Minimum Inhibitory Concentration (T. mentagrophytes; Day 2): 5 µg/mL; Minimum Inhibitory Concentration (P. mirabilis; Day 1): 100 µg/mL; Minimum Inhibitory Concentration (P. mirabilis; Day 2): 100 µg/mL; Minimum Inhibitory Concentration (T. rubrum; Day 1): 5 µg/mL; Minimum Inhibitory Concentration (T. rubrum; Day 2): 10 µg/mL; Minimum Inhibitory Concentrations (C. neoformans; Day 1): 5 µg/mL; Minimum Inhibitory Concentrations (C. neoformans; Day 2): 1 µg/mL; Minimum Inhibitory Concentration (A. fumigatus; Day 1): 100 µg/mL; Minimum Inhibitory Concentration (A. fumigatus; Day 2): 100 µg/mL
"CCCCCCCCCCCC[n+]1c(C)cc(C)n1Cc1ccc(Cl)cc1.[Br-] [Example 6-E, 2-(p-chlorobenzyl)-3,5-dimethyl-1-dodecyl-pyrazolium bromide]",10,50,5,5,50,50,5,5,0.5,0.5,10,5,
"2,3(5)-dimethyl-1-hexadecyl-pyrazolium methosulfate [Example 9]",,,,,,,,,,,,,Minimum Inhibitory Concentration (A. corymbifera; Day 1): 10 µg/mL; Minimum Inhibitory Concentration (A. corymbifera; Day 2): 10 µg/mL; Minimum Inhibitory Concentration (T. mentagrophytes; Day 1): 5 µg/mL; Minimum Inhibitory Concentration (T. mentagrophytes; Day 2): 5 µg/mL; Minimum Inhibitory Concentration (P. mirabilis; Day 1): 10 µg/mL; Minimum Inhibitory Concentration (P. mirabilis; Day 2): 10 µg/mL; Minimum Inhibitory Concentration (T. rubrum; Day 1): 5 µg/mL; Minimum Inhibitory Concentration (T. rubrum; Day 2): 5 µg/mL; Minimum Inhibitory Concentrations (C. neoformans; Day 1): 1 µg/mL; Minimum Inhibitory Concentrations (C. neoformans; Day 2): 0.5 µg/mL; Minimum Inhibitory Concentration (A. fumigatus; Day 1): 5 µg/mL; Minimum Inhibitory Concentration (A. fumigatus; Day 2): 10 µg/mL
"CCCCCCCCCCCCCCn1ccc[n+]1C [Example 3-G, 2-methyl-1-tetradecyl-pyrazolium methosulfate]",10,10,1,5,50,50,1,5,1,1,50,50,
"CCCCCCCCCCCC[n+]1c(C)cc(C)n1Cc1ccc(Cl)cc1Cl.[Br-] [Example 6-B, 2-(2,4-dichlorobenzyl)-3,5-dimethyl-1-dodecyl-pyrazolium bromide]",10,10,1,1,50,50,5,1,1,1,5,5,
"C=CCn1c(C)cc(C)[n+]1CCCCCCCCCCCCCCCC.[Br-] [Example 7, 2-allyl-3,5-dimethyl-1-hexadecyl-pyrazoliumbromide]",5,5,1,5,10,50,1,1,1,0.5,10,50,
"CCCCCCCCCCCCn1ccc[n+]1C [Example 3-E, 1-dodecyl-2-methy-pyrazolium methosulfate]",100,100,1,5,100,100,5,5,1,5,50,10,
